Results as given in publication PMC11443518, “Undescribed Amaryllidaceae Alkaloids from Zephyranthes citrina and Their Cytotoxicity” (Journal of Natural Products, 2024).
Like-named read-outs stand apart in the source and are kept apart here.

Tests used:
[1] = tested on: A2780 (ovarian carcinoma); assay: WST-1 cell proliferation assay, cytotoxicity screening; type: cell-based; conditions: Homo sapiens, read-out: growth percent (GP) A2780
From the text: (§1) Selected human tumor and nontumor cell lines Jurkat (acute T-cell leukemia), MOLT-4 (acute lymphoblastic leukemia), A549 (lung carcinoma), HT-29 (colorectal adenocarcinoma), PANC-1 (pancreas epithelioid carcinoma), A2780 (ovarian carcinoma), HeLa (cervix adenocarcinoma), MCF-7 (breast adenocarcinoma), SAOS-2 (osteosarcoma) and MRC-5 (nontumor lung fibroblasts) were purchased from European Collection of Authenticated Cell Cultures (ECACC, Salisbury, UK) and cultured according to the provider’s culture method guidelines. […] The cells in low passage number (nontumor primary cell line MRC-5 was used for a maximum of 10 passages and cancer cell lines were used for a maximum of 20 passages) and in an exponential growth phase were used for this study.
(§2) Each cell line was seeded at a previously established optimal density (1 × 10^3 to 50 × 10^3 cells per well) in a 96-well plate (TPP, Trasadingen, Switzerland) and cells were allowed to settle overnight. During screening tests for cytotoxicity, cells were treated with alkaloids at a final concentration of 10 μM for 48 h. Doxorubicin (Sigma-Aldrich, St. Louis, USA), at a concentration of 1 μM, was used as a positive control. At the end of the culture period, the WST-1 proliferation assay (Roche, Basel, Switzerland) was performed according to the manufacturer’s protocol. The absorbance was determined using a Tecan Spark microplate reader (Tecan, Männedorf, Switzerland). Each value is the mean of three independent experiments and represents the percentage of the proliferation of control, nontreated cells (100%). The growth percent (GP) value as the mean of the proliferation decrease was calculated for each cell line and derivative tested.

A549 (lung carcinoma) = assay: as above; type: cell-based; conditions: Homo sapiens, read-out: growth percent (GP) A549
From the text: as §1, §2

[2] = tested on: HT-29 (colorectal adenocarcinoma); assay: as above; type: cell-based; conditions: Homo sapiens, read-out: growth percent (GP) HT-29
From the text: as §1, §2

[3] = tested on: HeLa (cervix adenocarcinoma); assay: as above; type: cell-based; conditions: Homo sapiens, 48 h, read-out: growth percent (GP) HeLa
From the text: as §1, §2

[4] = tested on: Jurkat (acute T-cell leukemia); assay: as above; type: cell-based; conditions: Homo sapiens, 48 h, read-out: growth percent (GP) Jurkat
From the text: as §1, §2

[5] = tested on: MRC-5 (nontumor lung fibroblasts); assay: as above; type: cell-based; conditions: Homo sapiens, read-out: growth percent (GP) MRC-5; for activity at 10 µM: MRC5, 48 h
From the text: as §1, §2

[6] = tested on: PANC-1 (pancreas epithelioid carcinoma); assay: as above; type: cell-based; conditions: Homo sapiens, read-out: growth percent (GP) PANC-1
From the text: as §1, §2

SAOS-2 (osteosarcoma) = assay: as above; type: cell-based; conditions: Homo sapiens, read-out: growth percent (GP) SAOS-2
From the text: as §1, §2

[7] = tested on: MCF-7 (breast adenocarcinoma); assay: as above; type: cell-based, human; conditions: Homo sapiens, read-out: growth percent (GP) MCF-7
From the text: as §1, §2

[8] = tested on: MOLT-4 (acute lymphoblastic leukemia); assay: as above; type: cell-based, human; conditions: Homo sapiens, read-out: growth percent (GP) MOLT-4
From the text: as §1, §2

[9] = tested on: nine human tumor and one nontumor cell lines; assay: Cytotoxicity screening across the whole panel of cell lines; type: cell-based; conditions: Homo sapiens, read-out: GP value across the tested cell lines
From the text: Concerning the cytotoxicity of alkaloids isolated from Z. citrina, initially, Prakash and Vedanayaki investigated the MeOH extract of the bulbs for its in vitro cytotoxic activity using the MTT assay against three human cancer cell lines from different tissue origins: cervical cancer (HeLa), breast cancer (MCF-7), and oral squamous carcinoma (SCC-9). […] In this context, and to assess potential negative effects on human cell cultures, compounds 1, and 3–27 were screened in our study for cytotoxicity using a 10 μM single-dose regimen. The results were compared with those using the clinically approved antineoplastic agent doxorubicin at 1 μM. The effect on cell growth was investigated on nine human tumor and one nontumor cell lines, namely Jurkat (acute T-cell leukemia), MOLT-4 (acute lymphoblastic leukemia), A549 (lung carcinoma), HT-29 (colorectal adenocarcinoma), PANC-1 (pancreas epithelioid carcinoma), A2780 (ovarian carcinoma), HeLa (cervix adenocarcinoma), MCF-7 (breast adenocarcinoma), SAOS-2 (osteosarcoma) and MRC-5 (nontumor lung fibroblasts). […] No toxicity is valuable information, especially for compound 18, as it is a potent inhibitor of hAChE and hBChE.[27]
Selected human tumor and nontumor cell lines Jurkat (acute T-cell leukemia), MOLT-4 (acute lymphoblastic leukemia), A549 (lung carcinoma), HT-29 (colorectal adenocarcinoma), PANC-1 (pancreas epithelioid carcinoma), A2780 (ovarian carcinoma), HeLa (cervix adenocarcinoma), MCF-7 (breast adenocarcinoma), SAOS-2 (osteosarcoma) and MRC-5 (nontumor lung fibroblasts) were purchased from European Collection of Authenticated Cell Cultures (ECACC, Salisbury, UK) and cultured according to the provider’s culture method guidelines. All cell lines were maintained at 37 °C in a humidified 5% carbon dioxide and 95% air incubator. The cells in low passage number (nontumor primary cell line MRC-5 was used for a maximum of 10 passages and cancer cell lines were used for a maximum of 20 passages) and in an exponential growth phase were used for this study.
as §2

[10] = A2780, c = 10 μM, 48 h, % of proliferation of nontreated control
[11] = A549, c = 10 μM, 48 h, % of proliferation of nontreated control
[12] = HT-29, c = 10 μM, 48 h, % of proliferation of nontreated control
[13] = c = 10 μM, % of proliferation of nontreated control
[14] = PANC-1, c = 10 μM, 48 h, % of proliferation of nontreated control
[15] = SAOS-2, c = 10 μM, 48 h, % of proliferation of nontreated control
[16] = MCF7, c = 10 μM, 48 h, % of proliferation of nontreated control
[17] = MOLT-4, c = 10 μM, 48 h, % of proliferation of nontreated control
[18] = 10 μM single dose, 48-h interval, all tested cell lines

Structure (SMILES)	activity at 10 µM ([1]; A2780, 48 h) [%]	activity at 10 µM (A549 (lung carcinoma); A549, 48 h) [%]	activity at 10 µM ([2]; HT-29, 48 h) [%]	activity at 10 µM [3] [%]	activity at 10 µM [4] [%]	activity at 10 µM [5] [%]	activity at 10 µM ([6]; PANC-1, 48 h) [%]	activity at 10 µM (SAOS-2 (osteosarcoma); SAOS-2, 48 h) [%]	activity at 10 µM ([7]; MCF7, 48 h) [%]	activity at 10 µM ([8]; MOLT-4, 48 h) [%]	activity at 10 µM ([9]; 48 h) [%]	also measured
COc1cc2c(cc1OC)[C@@]13CC[C@H](OC)C[C@@H]1N(CC3)C2O (stereo partly shown) [Compound 9, zephyranine E]	111	95	95	106	96	100	98	77	108	79	> 50	–
COc1cc2c(c(O)c1OC)[C@@]13CC[C@H](OC)C[C@@H]1N(CC3)C2O (stereo partly shown) [Compound 10, zephyranine F]	113	81	88	82	89	97	77	73	99	78	> 50	–
COc1cc2c(cc1OC)[C@@]13CC[C@@H](O)C[C@@H]1N(CC3)C2 [Compound 11]	107	88	97	98	99	104	100	97	104	95	> 50	–
CO[C@@H]1C=C[C@@]23c4cc5c(cc4CN(C[C@@H]2O)[C@H]3C1)OCO5 [Compound 12, haemanthamine]	38	33	5	16	18	32	37	34	17	6	–	–
CO[C@@H]1C=C[C@@]23c4cc5c(cc4[C@H](O)N(C[C@@H]2O)[C@H]3C1)OCO5 [Compound 13, haemanthidine]	52	38	7	25	23	–	38	35	24	11	–	–
COc1ccc2c3c1O[C@H]1C[C@@H](O)CC[C@@]31CCN(C)C2 [Compound 19]	92	96	83	82	102	–	102	97	101	105	> 50	–
CO[C@@H]1C=C[C@@]23c4cc5c(cc4CO[C@]2(O)CN(C)[C@H]3C1)OCO5 [Compound 20]	101	83	57	84	93	–	76	92	94	95	> 50	–
COc1cc2c(cc1OC)[C@@H]1[C@H](O)[C@@H](OC)C=C3CCN(C2)[C@H]31 [Compound 23]	–	–	–	–	–	–	–	–	–	–	–	activity at 10 µM [1, 10]: 113%; activity at 10 µM (A549 (lung carcinoma); [11]): 93%; activity at 10 µM [2, 12]: 64%; activity at 10 µM [3, 13]: 93%; activity at 10 µM [4, 13]: 98%; activity at 10 µM [6, 14]: 97%; activity at 10 µM (SAOS-2 (osteosarcoma); [15]): 97%; activity at 10 µM [7, 16]: 114%; activity at 10 µM [8, 17]: 103%; activity at 10 µM [9, 18]: > 50%
CC(=O)O[C@@H]1CC=C2CCN3Cc4cc5c(cc4[C@H]1[C@@H]23)OCO5 [Compound 26]	–	–	–	–	–	–	–	–	–	–	–	activity at 10 µM [1, 10]: 141%; activity at 10 µM (A549 (lung carcinoma); [11]): 113%; activity at 10 µM [2, 12]: 107%; activity at 10 µM [3, 13]: 98%; activity at 10 µM [4, 13]: 132%; activity at 10 µM [6, 14]: 119%; activity at 10 µM (SAOS-2 (osteosarcoma); [15]): 95%; activity at 10 µM [7, 16]: 131%; activity at 10 µM [8, 17]: 119%; activity at 10 µM [9, 18]: > 50%
O[C@H]1[C@H]2c3cc4c(cc3CN3CCC(=C[C@@H]1O)[C@H]23)OCO4 [Compound 27, lycorine]	39	27	5	15	5	25	36	27	27	9	–	–
COc1cccc2c1C(=O)c1c(O)c3c(c(O)c1C2=O)C[C@@](O)(C(=O)CO)C[C@@H]3O[C@H]1C[C@H](N)[C@H](O)[C@H](C)O1 [doxorubicin, reference compound]	–	–	–	–	–	–	–	–	–	–	–	activity at 1 µM ([1]; A2780, positive control, c = 1 μM, 48 h): 5%; activity at 1 µM (A549 (lung carcinoma); A549, positive control, c = 1 μM, 48 h): 66%; activity at 1 µM ([2]; HT-29, positive control, c = 1 μM, 48 h): 77%; activity at 1 µM ([3]; positive control, c = 1 μM): 7%; activity at 1 µM ([4]; positive control, c = 1 μM): 0%; activity at 1 µM ([5]; MRC5, positive control, c = 1 μM, 48 h): 40%; activity at 1 µM ([6]; PANC-1, positive control, c = 1 μM, 48 h): 59%; activity at 1 µM (SAOS-2 (osteosarcoma); SAOS-2, positive control, c = 1 μM, 48 h): 73%; activity at 1 µM ([7]; MCF7, positive control, c = 1 μM, 48 h): 41%; activity at 1 µM ([8]; MOLT-4, positive control, c = 1 μM, 48 h): 0%
